From article PMC10117764, “The roles of serine hydrolases and serum albumin in alisol B 23-acetate hydrolysis in humans” (Frontiers in Pharmacology, 2023)
Where “and” joins values, the source holds several entries; their conditions need not be identical. Identical values can stand only once.

Experiments:
[1] = Hydrolytic half-life of AB23A in human intestine microsomes; assay type: in vitro ADME; conditions: human intestine microsomes (HIMs), HIMs 0.1 mg/mL, PBS pH 7.4, read-out: t1/2 (hydrolytic/metabolic half-life)
Experimental: (§1) The hydrolytic half-lives (t1/2) of AB23A in human plasma and different human tissue preparations were carried out according to the procedure of in vitro metabolic stability studies ([Ge et al., 2013]). The incubation mixture (1,000 μL) consisted of PBS (pH 7.4), enzyme sources (HLMs/HIMs/human plasma) and AB23A. 25% diluted human plasma was used, the protein concentrations of other tissue microsomes were 0.1 mg/mL. The 100 μL incubation mixture was moved to another containing ice-cold acetonitrile tube at different time points (0, 5, 15, 30, 45, 60, 90, 120 min). All samples were centrifuged for 30 min at 20,000 g 4°C and took the supernatants for LC-UV analysis.
(§2) The incubation conditions were as follows: the classic incubation system included 100 mM potassium phosphate buffer (PBS, pH 7.4), enzyme sources, and AB23A. In all incubations, PBS and enzyme sources were pre-incubation at 37 °C for 3 min and the reaction was started by adding AB23A (the organic solvent content at most 1%). After reacting 1 h, ice-cold acetonitrile was added to terminate the reaction and precipitate proteins. The samples were centrifuged for 30 min at 20000 × g, 4 °C, and the supernatants were taken for further LC-UV analysis.

[2] = Hydrolytic half-life of AB23A in rat liver microsomes; assay type: in vitro ADME; conditions: rat liver microsomes (RLMs), pH 7.4, RLMs 0.10 mg/mL, read-out: T1/2 (hydrolytic half-life)
Experimental: as §1, §2

hCES2A = target: T1, hCES2A (Homo sapiens, UniProt O00748); assay: Reaction phenotyping assay of AB23A hydrolysis, hCES2A; assay type: in vitro ADME; conditions: hCES2A 5 μg/mL, AB23A 20 μM, 60 min, pH 7.4 at 37°C
T1 construct: 10xHis; made in house; host or cells: HEK293-F cells, pTT5 vector, purified from conditioned medium
T1 sequence (O00748 27-559): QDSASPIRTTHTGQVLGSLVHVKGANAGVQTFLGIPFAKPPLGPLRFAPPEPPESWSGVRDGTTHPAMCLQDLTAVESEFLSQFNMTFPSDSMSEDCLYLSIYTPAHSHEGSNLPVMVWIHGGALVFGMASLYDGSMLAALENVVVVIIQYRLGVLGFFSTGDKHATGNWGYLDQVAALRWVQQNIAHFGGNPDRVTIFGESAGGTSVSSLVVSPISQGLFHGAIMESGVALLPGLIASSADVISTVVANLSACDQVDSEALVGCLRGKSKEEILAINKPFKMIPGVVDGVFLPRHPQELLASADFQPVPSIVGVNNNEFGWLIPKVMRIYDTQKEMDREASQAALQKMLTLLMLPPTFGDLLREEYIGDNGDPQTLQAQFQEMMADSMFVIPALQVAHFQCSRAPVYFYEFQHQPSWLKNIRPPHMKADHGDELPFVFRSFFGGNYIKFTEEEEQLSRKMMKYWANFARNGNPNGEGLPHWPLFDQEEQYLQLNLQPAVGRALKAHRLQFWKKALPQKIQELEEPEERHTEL
Experimental: The hydrolytic rates of AB23A in different human recombinant enzymes (hCES1A, hCES2A, hPL, hIAH1, hNotum, hAchE, hBchE, hSA, hCTSA, hMAGL) were assayed. The incubation system included PBS, each tested enzyme (5 μg/mL, final concentration), and AB23A (20 μM). After incubation for 1 h at 37°C, ice-cold acetonitrile was added to terminate the reaction and precipitate proteins. The supernatants by centrifuging were used to quantify the formation rates of AB by LC-UV analysis. The detection wavelength of AB was 196 nm.

[3] = Hydrolytic half-life of AB23A in pig liver microsomes; assay type: in vitro ADME; conditions: pig liver microsomes (PLMs), pH 7.4, PLMs 0.10 mg/mL, read-out: T1/2 (hydrolytic half-life)
[4] = set-up: method as in Liu et al. (2022); conditions: oral administration of Qingfei Paidu Decoction, ref Liu et al. (2022); cited from earlier work
[5] = Hydrolytic half-life of AB23A in human plasma; assay type: in vitro ADME; conditions: human plasma (25% diluted); 25% dilution human plasma, PBS pH 7.4; read-out: t1/2 (hydrolytic/metabolic half-life)
Experimental: as §1, §2

hSA [6] = target: T2, hSA (Homo sapiens, UniProt P02768); assay: Kinetic analysis of AB23A hydrolysis in hSA; assay type: in vitro ADME; conditions: 1 h incubation
T2 construct: purchased Sigma-Aldrich Lot#SLCC9268
T2 sequence (P02768 25-609): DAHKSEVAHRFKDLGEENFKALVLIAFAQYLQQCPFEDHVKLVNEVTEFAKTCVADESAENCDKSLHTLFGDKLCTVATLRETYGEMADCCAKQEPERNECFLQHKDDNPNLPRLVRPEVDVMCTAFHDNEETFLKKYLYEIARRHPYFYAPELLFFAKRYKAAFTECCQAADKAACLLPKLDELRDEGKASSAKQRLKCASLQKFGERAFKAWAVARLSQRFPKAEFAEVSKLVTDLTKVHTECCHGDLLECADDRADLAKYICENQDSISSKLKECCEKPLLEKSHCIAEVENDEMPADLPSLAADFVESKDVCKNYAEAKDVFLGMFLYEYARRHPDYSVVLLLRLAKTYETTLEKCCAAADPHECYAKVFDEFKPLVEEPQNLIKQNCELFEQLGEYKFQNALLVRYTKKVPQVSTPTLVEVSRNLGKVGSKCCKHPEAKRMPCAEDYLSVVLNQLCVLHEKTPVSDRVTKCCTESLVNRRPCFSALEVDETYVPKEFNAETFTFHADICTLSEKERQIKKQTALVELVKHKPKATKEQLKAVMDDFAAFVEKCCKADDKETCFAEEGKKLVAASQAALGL
Experimental: (§3) The enzymatic kinetics of AB23A hydrolysis in different tissue preparations (HLMs, HIMs, human plasma) and human recombinant enzymes (hCES1A, hCES2A, hSA, hBchE) were analyzed. The incubation system (200 μL) consisted of PBS, each tested enzyme, and AB23A (ranging from 0 to 1,000 μM). After incubating for 1 h, the supernatants were then used for LC-UV analysis. The kinetic parameters of AB23A hydrolysis were fitted by the following Michaelis−Menten Eq. 1 ([Zhang et al., 2022]). V=(Vmax×[S])⁄(Km+[S]) (1) Here, K m is the Michaelis constant of AB23A hydrolysis, V max is the maximum velocity of AB23A hydrolysis, V max /K m is used to calculate the intrinsic clearance (CL int ).

hSA [7] = target: T2, hSA; assay: Identification of the modification sites of hSA by AB23A (LC-MS/MS of tryptic peptides); conditions: hSA 1 mg/mL, AB23A 50 μM, 37°C; following co-incubation
Experimental: […] The soluble impurities and unbound molecules were washed by ultrapure water (200 μL) ([Nel et al., 2015]). After denaturation for 1 h in 8 M urea solution at 37°C, the mixture was alkylated with dithiothreitol and iodoacetamide in the dark, washed twice with 200 μL ultrapure water, and finally washed with 200 μL 50 mM ammonium bicarbonate. The samples were digested overnight with 2 μL trypsin in 50 mM ammonium bicarbonate solution at an enzyme-to-substrate ratio of 1:50 (w/w). The trypsin digest was collected and washed with 50 μL NaCl solution (500 mM). The peptides were desalted by the MonoSpin C18 (GL Sciences). Subsequently, the eluents were dried by the vacuum pump and resolved in 40 μL 0.1% formic acid for analyses (please refer to the Supplementary Material for more details).

[8] = Kinetic analysis of AB23A hydrolysis in HIMs; assay type: in vitro ADME, human
Experimental: as §3

CC(=O)O[C@H](C[C@@H](C)C1=C2C[C@H](O)C3[C@@]4(C)CCC(=O)C(C)(C)C4CC[C@]3(C)[C@@]2(C)CC1)[C@H]1OC1(C)C (stereo partly shown) [AB23A, Alisol B 23-acetate]
half-life [1]: 68 ± 0.01 min
half-life [2]: 55.63 ± 0.11 min
Hydrolytic rate (formation of AB) in reaction phenotyping (hCES2A): also catalyzed this hydrolytic reaction
half-life [3]: 9.5 ± 0.05 min
Detection in mice plasma and liver [4]: hardly detected
half-life [5]: 115 ± 0.2 min
K m of AB23A hydrolysis (hSA [6]): 261.20 ± 18.69 µM
Number of lysines in hSA acylated by AB23A (hSA [7]): 39
K m of AB23A hydrolysis [8]: 164.00 ± 18.63 µM
V max of AB23A hydrolysis [8]: 2.93 ± 0.10 nmol/min/mg protein and 2.93 ± 0.10 ^a nmol/min/mg protein
